Experimental findings from patent US20240301023A1 (priority 2020, published 2024) are described below.

Read-outs that look alike come from different tables or passages of the source. Square brackets hold non-standard residues; d marks the D form. Peptide text beside a SMILES is read from it. Sar = CNCC(=O)O

As usually defined, the EC50 is the concentration giving half of the maximal effect. Usually half-life stands for how long it takes for the measured level to halve. A low value points to fast loss.

The target in data set [1] is KOR (Homo sapiens, UniProt P41145). The experiment in a line: cell-based. Format: cell-based.
Data set [2] addresses KOPr (Homo sapiens, UniProt P41145). Format: cell-based.
Data set [3] concerns the target Delta opioid receptor (DOR) (Homo sapiens, UniProt P41143). The experiment in a line: cell-based. The format is cell-based.
A short description of data set [4]: Stability in rat plasma. As to conditions: both sexes, Wistar, 37° C., 100 μM peptide. The format is in vitro ADME. As to the method: Stability in plasma was assessed in rat plasma. Plasma was collected in-house from adult mixed-gender Wistar rats, prepared using 2% EDTA as per standard practice. Peptides were added to the rat plasma samples at 37° C. in a water bath with final concentrations of 100 μM (1:9 peptide in water:plasma). The assay was then carried out in the same manner as the assay in bovine trypsin.

The target of data set [5] is Mu opioid receptor (MOR) (Homo sapiens, UniProt P35372). Put plainly: cell-based. The format is cell-based.
The target in data set [6] is T1, bovine pancreatic trypsin (Bos taurus, UniProt P00760).
T1 construct: from tissue; host or cells: bovine pancreas
T1 sequence (P00760 24-246): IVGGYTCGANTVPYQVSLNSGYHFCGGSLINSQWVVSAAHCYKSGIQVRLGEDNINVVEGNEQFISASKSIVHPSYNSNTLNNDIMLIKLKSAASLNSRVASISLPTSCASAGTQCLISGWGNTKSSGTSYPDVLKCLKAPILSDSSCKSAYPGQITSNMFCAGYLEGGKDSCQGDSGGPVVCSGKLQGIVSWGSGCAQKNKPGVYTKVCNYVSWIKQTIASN
Put plainly: Stability in bovine trypsin. Format: in vitro ADME. To be noted: bovine pancreatic trypsin solution; bovine pancreatic trypsin 2.5 μg/mL, NH4HCO3 buffer pH 8-8.5, 37° C., 100 μM peptide. As to the method:
The stability of the peptides was analysed in typsin, plasma and water. Stability of linear peptides is generally low due to rapid degradation by endogenous peptidases and proteases. While stability in bodily fluids is important, absolute stability may not be prudent or desirable due to potential build-up in vivo leading to adverse side effects, and/or hazards to the environment and recirculation of exceptionally stable compounds in waterways. Thus, compounds that are extremely stable in either plasma or typsin are not generally considered “drug-like”.
Stability in bovine trypsin was analysed for SEQ ID Nos. 2 to 7 and 11 to 17. Peptides were added to trypsin solution (bovine pancreatic trypsin 2.5 μg/mL in NH4HCO3 buffer, pH approximately 8-8.5, 37° C.) in a water bath with final concentrations of 100 μM peptide. A 50 μL sample was taken immediately and precipitated in 150 μL of cold acetonitrile (9:1 acetonitrile:water) This sample became the baseline, or t=0 min sample. The trypsin peptide mixture was immediately returned to the water bath and subsequent 50 μL samples were taken at 5, 10, 15, 30, 60 and 120 min. At each time point, the 50 μL sample was collected and immediately added to cold acetonitrile (ACN). Each sample was vortexed for 30 sec and then centrifuged at room temperature (RT) (13K rpm, 5 min). 150 μL of the supernatant was taken and directly place in a glass HPLC vial for LCMS analysis.

Data set [7] is described as follows: Stability in water. The format is physicochemical. As to conditions: ultra-pure Milli-Q water. As to the method:
Stability in water was carried out by incubating each candidate in ultra-pure, Milli-Q water (Millipore Corporation). Again, volumes, times and preparation protocols were exactly as described above in plasma stability method above.

In data set [8] the target is Kappa opioid receptor (KOR) (Homo sapiens, UniProt P41145). Put plainly: cell-based. The format is cell-based.
Sequence of Kappa opioid receptor (KOR) (P41145 whole entry): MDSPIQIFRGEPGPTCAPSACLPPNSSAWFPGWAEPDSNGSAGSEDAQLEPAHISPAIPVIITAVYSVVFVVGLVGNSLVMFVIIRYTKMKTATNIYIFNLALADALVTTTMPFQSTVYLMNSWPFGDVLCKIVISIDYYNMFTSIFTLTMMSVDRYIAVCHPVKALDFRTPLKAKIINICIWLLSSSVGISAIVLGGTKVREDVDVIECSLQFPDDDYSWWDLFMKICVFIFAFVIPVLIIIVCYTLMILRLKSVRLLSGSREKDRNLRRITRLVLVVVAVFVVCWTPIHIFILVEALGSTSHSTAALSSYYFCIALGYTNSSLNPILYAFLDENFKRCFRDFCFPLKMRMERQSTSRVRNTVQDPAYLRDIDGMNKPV

Sequence of Delta opioid receptor (DOR) (P41143 whole entry): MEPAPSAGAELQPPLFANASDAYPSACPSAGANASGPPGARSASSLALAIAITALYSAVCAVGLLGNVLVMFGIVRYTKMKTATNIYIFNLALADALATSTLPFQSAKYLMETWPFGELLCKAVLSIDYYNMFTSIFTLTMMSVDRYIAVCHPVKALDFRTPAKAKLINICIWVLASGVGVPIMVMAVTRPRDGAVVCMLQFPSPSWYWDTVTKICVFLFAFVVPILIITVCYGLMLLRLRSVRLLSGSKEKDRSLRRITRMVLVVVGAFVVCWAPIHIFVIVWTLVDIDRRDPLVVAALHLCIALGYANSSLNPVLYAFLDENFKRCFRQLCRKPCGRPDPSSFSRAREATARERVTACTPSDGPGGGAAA
Sequence of Mu opioid receptor (MOR) (P35372 whole entry): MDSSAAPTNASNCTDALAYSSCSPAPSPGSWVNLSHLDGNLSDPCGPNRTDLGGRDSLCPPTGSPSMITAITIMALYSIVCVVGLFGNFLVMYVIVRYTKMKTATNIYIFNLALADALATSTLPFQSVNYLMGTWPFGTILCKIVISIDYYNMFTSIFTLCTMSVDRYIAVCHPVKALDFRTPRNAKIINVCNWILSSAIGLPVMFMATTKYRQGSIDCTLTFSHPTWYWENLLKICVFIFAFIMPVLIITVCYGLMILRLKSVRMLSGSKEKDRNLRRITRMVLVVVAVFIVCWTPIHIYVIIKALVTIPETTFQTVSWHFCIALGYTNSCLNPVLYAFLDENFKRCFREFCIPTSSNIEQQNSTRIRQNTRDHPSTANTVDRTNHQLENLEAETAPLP
Sequence of KOR (P41145 whole entry): as the sequence (P41145 whole entry) above
Sequence of KOPr (P41145 whole entry): as above

Take `CC(C)C[C@@H](NC(=O)[C@@H](Cc1ccccc1)NC(=O)[C@H](N)Cc1ccccc1)C(=O)N[C@H](CCCCN)C(=O)N1CCC(N)(C(=O)O)CC1` [SEQ ID NO. 35, DPhe-DPhe-DLeu-DLys-Cap-CO2H, reference compound]: the “KOR desensitisation (change of cAMP maximal response after pre-treatment)” value in data set [1] is recorded as “significant reduction maximal effect”. For the same compound, in data set [2], the “bias factor (β) relative to U50488H” value was “no bias either way”; the pERK1/2 activity entry is “time and concentration dependent pERK expression”. Also, in data set [3], the EC50 was more than 10000 nM, the “cAMP assay DOR 1 μM” value is given as −5.72 and the “cAMP assay DOR 10 μM” value came to 3.27. Further, the half-life at 100 µM in data set [4] was 649 min. For the same compound, in data set [5], the EC50 was more than 10000 nM, the “cAMP assay MOR 1 μM” value is reported as 0.37 and the “cAMP assay MOR 10 μM” value came to 8.07. Also, the half-life at 100 µM in data set [6] came out at 1060 min. The half-life at 100 µM in data set [7] is more than 1000 min. Also, in data set [8], the “cAMP assay KOR 1 μM” value is recorded as 25.93 and the “cAMP assay KOR 10 μM” value came to 34.61.

In the case of `CC(C)C[C@H](NC(=O)[C@H](Cc1ccccc1)NC(=O)CN(C)C(=O)[C@@H](N)Cc1ccc(O)cc1)C(=O)N[C@@H](CCCNC(=N)N)C(=O)N[C@@H](CCCNC(=N)N)C(N)=O` [SEQ ID NO. 2, NH2-Tyr-Sar-Phe-Leu-Arg-Arg-NH2] (H-Y[Sar]FLRR-NH2), in data set [3], the EC50 is more than 10000 nM, the “cAMP assay DOR 1 μM” value is reported as −0.47 and the “cAMP assay DOR 10 μM” value came out at 21.96. The half-life at 100 µM in data set [4] was found to be 96.7 min. In data set [5], the response was half-maximal at 6700 nM (EC50), the “cAMP assay MOR 1 μM” value is −2.5 and the “cAMP assay MOR 10 μM” value is 12.41. In data set [6], this compound yielded a half-life at 100 µM of 1.8 min. In data set [7], this compound showed a half-life at 100 µM of more than 1000 min. For the same compound, in data set [8], the “cAMP assay KOR 1 μM” value is 21.65 and the “cAMP assay KOR 10 μM” value is recorded as 32.41.

Turning to `CC(C)C[C@H](NC(=O)[C@H](Cc1ccccc1)NC(=O)CNC(=O)CNC(=O)[C@@H](N)Cc1ccc(O)cc1)C(=O)N[C@@H](CCCNC(=N)N)C(=O)N[C@@H](CCCNC(=N)N)C(=O)O` [SEQ ID NO. 38, Tyr-Gly-Gly-Phe-Leu-Arg-Arg, reference compound], the “KOR desensitisation (change of cAMP maximal response after pre-treatment)” value in data set [1] is listed as “did not show any desensitisation”. In addition, the EC50 came out at 870 nM in data set [3] (read-out: Activity (EC50, nM) DOR) and 3740 nM in data set [5] (read-out: Activity (EC50, nM) MOR). Further, in data set [7], the half-life at 100 µM was more than 1000 min.
